SMILES strings stand for the structures. pIC50: −log10 of the molar value.

The text below walks through data of patent US7608620B2, “LPAAT-β inhibitors and uses thereof” (Cell Therapeutics, Inc., priority 2000, dated 2009).

This experiment addresses T1, LPAAT-β (Homo sapiens, UniProt O15120).
T1 construct: the full-length human LPAAT-β cDNA was amplified by PCR; made in house; host or cells: Sf9 insect cells (baculovirus, pFastBac HTc); membrane fraction
T1 sequence (O15120 24-278): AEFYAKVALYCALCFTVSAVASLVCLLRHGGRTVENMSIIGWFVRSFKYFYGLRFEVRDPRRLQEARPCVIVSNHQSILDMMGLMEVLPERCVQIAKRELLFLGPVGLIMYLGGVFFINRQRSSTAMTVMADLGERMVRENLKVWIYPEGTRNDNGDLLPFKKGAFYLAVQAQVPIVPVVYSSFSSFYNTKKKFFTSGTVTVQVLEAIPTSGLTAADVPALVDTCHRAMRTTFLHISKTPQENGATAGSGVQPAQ
The experiment can be described thus: LPAATβ colorimetric assay (DTNB detection of released CoA). The class given is biochemical. To be noted: Sf9 cell membrane overexpressing LPAAT-β. The protocol:
For the construction of Baculovirus expression vectors, the full-length human LPAAT-β cDNA was amplified by PCR from the DNA template pCE9.LPAAT-β (West et al., DNA Cell Biol. 16:691-701 (1997)) using the primers 5′-TGATATCCGAAGAAGATCTTATGGAGCTGTGGCCGTGTC-3′ (olpb1F; SEQ ID NO:3) and 5′-CAGGCTCTAG ACTACTGGGC CGGCTGCAC-3′ (olpb1R; SEQ ID NO:4). The ˜870 bp fragment generated was reamplified by PCR using the primers 5° CCTACGTCG ACATGGAACAAAAATTGATATCCGAAGAAGATC-3′ (olpb2F; SEQ ID NO:5) and 5′-CAGGCTCTAG ACTACTGGGC CGGCTGCAC-3′ (olpb1R; SEQ ID NO:6). The ˜890 bp fragment generated was then cleaved with Sal I and Xba I for insertion into pFastBac™ HTc vector (Life Technologies, Gaithersberg, Md.) between the Sal I and Xba I sites for the generation of the plasmid pFB.LPAAT-β. This plasmid was then transformed into E. coli DH10Bac™ (Life Technologies, Gaithersberg, Md.) for the generation of recombinant Bacmid DNA for transfection into HighFive (Invitrogen, San Diego, Calif.) or SF9 insect cells for the production of recombinant Baculovirus stocks using the protocol described in the Bac-to-Bac® Baculovirus Expression System (Life Technologies, Gaithersberg, Md.), a eukaryotic expression system for generating recombinant baculovirus through site- specific transposition in E. coli. Viral stocks harvested from the transfected cells can then be used to infect fresh insect cells for the subsequent expression of LPAAT-β fusion protein with a poly-histidine tag and a myc-epitope near its N-terminus. The membrane fraction from these Sf9 cells would be the source of LPAAT enzyme.
For the preparation of membranes From Sf9 Cells, all steps are performed on ice or at 4° C. Sf9 cell pellets (˜10^8 cells) were thawed and resuspended in 1-2 ml of buffer A (20 mM Hepes, pH 7.5, 1 mM DTT, 1 mM EDTA, 20% w/v glycerol, 1 mM Benzamidine, 1 μg/ml soybean trypsin inhibitor (SBTI), 1 μg/ml pepstatin A) w/o DTT but with 1 mM Pefabloc. The cells were lysed by sonication using a Branson Sonifier at output=2, duty cycle=2, 10 pulses each at 10 s. with the tip of small sonicator probe submerged but not touching the walls. DTT was then added to 1 mM from a 1 M stock. The samples were centrifuged at 1500 rpm for 5 min. The low speed supernatant was saved and centrifuged (TLA 100.3 rotor, polycarbonate tubes, 2 ml/tube or 1.5 ml/tube minimum) at 100000×g for 1 hr. The high speed pellet was resuspend in Buffer A with a probe sonicator (10 pulses @ output #2 and duty cycle 20%) as a source of LPAAT enzyme.
LPAAT-β catalyzes the transfer of an acyl group from a donor such as acyl-CoA to LPA. The transfer of the acyl group from acyl-CoA to LPA leads to the release of free CoA, which can be reacted with the thiol reagent, 5,5′-dithiobis(2-nitrobenzoic acid) (DTNB). The reaction between DTNB and the free sulfhydryl group from CoA generates a yellow-colored product, 3-carboxylato-4-nitrothiophenolate (CNP), that absorbs at 413 nm. LPAAT-β derived from Sf9 cell membrane overexpressing LPAAT-β were resuspended in HEPES saline buffer (20 mM HEPES pH 7.5, 150 mM NaCl), 1 mg/ml BSA and 72 μl aliquots were distributed into 96-well microtiter plates. 8 μl of compound of interest at 200 μM dissolved in 100% DMSO was added into each well. 20 μl of 1 mM 18:1-CoA and 1 mM sn-1-18: 1 lysoPA was then added to each well to initiate the reaction and allowed to run at room temperature for 25 min. 100 μl of 1 mM DTNB in 100% ethanol was then added to each well to quench the reaction and for color development. The absorbance at 405 nm, measured using a spectrophotometer plate reader, is proportional to the activity of LPAAT-β in the sample. This colorimetric assay was used for the high throughput screening of LPAAT inhibitors. […] Compounds that gave a reading of less than 0.06 arbitrary units (indicated by arrow on right margin) were selected for further study.

By pIC50 is commonly meant the IC50 on a negative log10 scale, so that one unit is a factor of ten. Consider `Clc1nc(Nc2ccccc2)nc(Nc2ccc3c(c2)OCO3)n1` [CT-32042, N-benzo[1,3]dioxol-5-yl-6-chloro-N′-phenyl-[1,3,5]triazine-2,4-diamine], for which the pIC50 is 6.70.

Take `CSc1nc(Nc2ccccc2)nc(Nc2ccc(Cl)cc2)n1` [CT-31888, N-(4-chlorophenyl)-6-methylsulfanyl-N′-phenyl-[1,3,5]triazine-2,4-diamine]: the negative-log IC50 (pIC50) is 5.51.

For `Clc1ccc(Nc2nc(Cl)nc(Nc3ccc4c(c3)OCO4)n2)cc1` [CT-31978, N-benzo[1,3]dioxol-5-yl-6-chloro-N′-(4-chlorophenyl)-[1,3,5]triazine-2,4-diamine], the pIC50 was 6.00.

Take `CCCNc1nc(Cl)nc(Nc2ccc(Cl)cc2)n1` [CT-116988, 6-chloro-N-2-(4-chlorophenyl)-N-4-propyl-[1,3,5]triazine-2,4-diamine]: the pIC50 is 6.80.

For `COc1ccc(Nc2nc(Cl)nc(Nc3ccc(Cl)cc3)n2)cc1` [CT-31867, 6-chloro-N-(4-chlorophenyl)-N′-(4-methoxy-phenyl)-[1,3,5]triazine-2,4-diamine], the negative logarithm of the IC50 (pIC50) is 6.12.

As to `COc1ccc(Nc2nc(Cl)nc(Nc3ccccc3)n2)cc1` [CT-31942, 6-chloro-N-(4-methoxyphenyl)-N′-phenyl-[1,3,5]triazine-2,4-diamine], the pIC50 was 6.40.

In the case of `Clc1nc(Nc2ccccc2)nc(Nc2ccc3c(c2)OCCO3)n1` [CT-32028, 6-chloro-N-(2,3-dihydrobenzo[1,4]dioxin-6-yl)-N′-phenyl-[1,3,5]triazine-2,4-diamine], the pIC50 was 6.70.

Take `Clc1nc(Nc2ccccc2)nc(Nc2ccc3c(c2)CCC3)n1` [CT-32099, 6-chloro-N-indan-5-yl-N′-phenyl-[1,3,5]triazine-2,4-diamine]: the pIC50 was 6.19.

Regarding `CCCNc1nc(Nc2ccc(Cl)cc2)nc(OC)n1` [CT-117147, N-(4-chlorophenyl)-6-methoxy-N′-propyl-[1,3,5]triazine-2,4-diamine], the pIC50 is 5.42.
